# Source: patent publication US20260130395A1, “Water Dispersible Botanical Compositions” (Aquila Black Limited, priority 2021, published 2026)
# Assay: Stability of cannabinoid compounds and Vitamin E components in Beverage 2 (AB Red) by LCMSMS
# Assay type: physicochemical
compound,measurement,setting,value
"C=C(C)[C@@H]1CCC(C)=C[C@H]1c1c(O)cc(CCC)cc1O [CBDV, cannabidivarin]",Stability of Plant-Derived Cannabinoid Compounds in AB Red,"stored at 8° C., 0 days",0.200 µg/mL
same,Stability of Plant-Derived Cannabinoid Compounds in AB Red,"stored at 8° C., 1 days",0.194 µg/mL
same,Stability of Plant-Derived Cannabinoid Compounds in AB Red,"stored at 8° C., 2 days",0.197 µg/mL
same,Stability of Plant-Derived Cannabinoid Compounds in AB Red,"stored at 8° C., 3 days",0.199 µg/mL
same,Stability of Plant-Derived Cannabinoid Compounds in AB Red,"stored at 8° C., 5 days",0.198 µg/mL
same,Stability of Plant-Derived Cannabinoid Compounds in AB Red,"stored at 8° C., 8 days",0.198 µg/mL
same,Stability of Plant-Derived Cannabinoid Compounds in AB Red,"stored at 8° C., 9 days",0.201 µg/mL
same,Stability of Plant-Derived Cannabinoid Compounds in AB Red,"stored at 8° C., 10 days",0.194 µg/mL
same,Stability of Plant-Derived Cannabinoid Compounds in AB Red,"stored at 8° C., 11 days",0.195 µg/mL
same,Stability of Plant-Derived Cannabinoid Compounds in AB Red,"stored at 8° C., 12 days",0.198 µg/mL
same,Stability of Plant-Derived Cannabinoid Compounds in AB Red,"stored at 8° C., 15 days",0.194 µg/mL
same,Stability of Plant-Derived Cannabinoid Compounds in AB Red,"stored at 8° C., 16 days",0.195 µg/mL
same,Stability of Plant-Derived Cannabinoid Compounds in AB Red,"stored at 8° C., 17 days",0.195 µg/mL
same,Stability of Plant-Derived Cannabinoid Compounds in AB Red,"stored at 8° C., 18 days",0.195 µg/mL
same,Stability of Plant-Derived Cannabinoid Compounds in AB Red,"stored at 8° C., 19 days",0.199 µg/mL
same,Stability of Plant-Derived Cannabinoid Compounds in AB Red,"stored at 8° C., 22 days",0.200 µg/mL
same,Stability of Plant-Derived Cannabinoid Compounds in AB Red,"stored at 8° C., 23 days",0.194 µg/mL
same,Stability of Plant-Derived Cannabinoid Compounds in AB Red,"stored at 8° C., 24 days",0.197 µg/mL
same,Stability of Plant-Derived Cannabinoid Compounds in AB Red,"stored at 8° C., 25 days",0.199 µg/mL
same,Stability of Plant-Derived Cannabinoid Compounds in AB Red,"stored at 8° C., 26 days",0.199 µg/mL
same,Stability of Plant-Derived Cannabinoid Compounds in AB Red,"stored at 8° C., 29 days",0.197 µg/mL
same,Stability of Plant-Derived Cannabinoid Compounds in AB Red,"stored at 8° C., 30 days",0.200 µg/mL
same,Stability of Plant-Derived Cannabinoid Compounds in AB Red,"stored at 8° C., 60 days",0.199 µg/mL
same,Stability of Plant-Derived Cannabinoid Compounds in AB Red,"stored at 8° C., 90 days",0.196 µg/mL
same,Stability of Plant-Derived Cannabinoid Compounds in AB Red,"stored at 8° C., 120 days",0.193 µg/mL
same,Stability of Plant-Derived Cannabinoid Compounds in AB Red,"stored at 8° C., 150 days",0.198 µg/mL
same,Stability of Plant-Derived Cannabinoid Compounds in AB Red,"stored at 8° C., 180 days",0.192 µg/mL
same,Stability of Plant-Derived Cannabinoid Compounds in AB Red,"stored at 8° C., 210 days",0.193 µg/mL
same,Stability of Plant-Derived Cannabinoid Compounds in AB Red,"stored at 8° C., 240 days",0.192 µg/mL
same,Stability of Plant-Derived Cannabinoid Compounds in AB Red,"stored at 8° C., 270 days",0.195 µg/mL
same,Stability of Plant-Derived Cannabinoid Compounds in AB Red,"stored at 8° C., 300 days",0.193 µg/mL
same,Stability of Plant-Derived Cannabinoid Compounds in AB Red,"stored at 8° C., 330 days",0.191 µg/mL
same,Stability of Plant-Derived Cannabinoid Compounds in AB Red,"stored at 8° C., 360 days",0.193 µg/mL
same,Stability of Plant-Derived Cannabinoid Compounds in AB Red,"stored at 8° C., 390 days",0.194 µg/mL
same,Stability of Plant-Derived Cannabinoid Compounds in AB Red,"stored at 8° C., 420 days",0.193 µg/mL
same,Stability of Plant-Derived Cannabinoid Compounds in AB Red,"stored at 8° C., 450 days",0.195 µg/mL
same,Stability of Plant-Derived Cannabinoid Compounds in AB Red,"stored at 8° C., 480 days",0.190 µg/mL
same,Stability of Plant-Derived Cannabinoid Compounds in AB Red,"stored at 8° C., 510 days",0.184 µg/mL
same,Stability of Plant-Derived Cannabinoid Compounds in AB Red,"stored at 8° C., 540 days",0.185 µg/mL
same,Stability of Plant-Derived Cannabinoid Compounds in AB Red,"stored at 8° C., 570 days",0.183 µg/mL
same,Stability of Plant-Derived Cannabinoid Compounds in AB Red,"stored at 21-25° C., 0 days",0.20 µg/mL
same,Stability of Plant-Derived Cannabinoid Compounds in AB Red,"stored at 21-25° C., 1 days",0.20 µg/mL
same,Stability of Plant-Derived Cannabinoid Compounds in AB Red,"stored at 21-25° C., 2 days",0.20 µg/mL
same,Stability of Plant-Derived Cannabinoid Compounds in AB Red,"stored at 21-25° C., 3 days",0.20 µg/mL
same,Stability of Plant-Derived Cannabinoid Compounds in AB Red,"stored at 21-25° C., 5 days",0.19 µg/mL
same,Stability of Plant-Derived Cannabinoid Compounds in AB Red,"stored at 21-25° C., 8 days",0.20 µg/mL
same,Stability of Plant-Derived Cannabinoid Compounds in AB Red,"stored at 21-25° C., 9 days",0.20 µg/mL
same,Stability of Plant-Derived Cannabinoid Compounds in AB Red,"stored at 21-25° C., 10 days",0.20 µg/mL
same,Stability of Plant-Derived Cannabinoid Compounds in AB Red,"stored at 21-25° C., 11 days",0.20 µg/mL
same,Stability of Plant-Derived Cannabinoid Compounds in AB Red,"stored at 21-25° C., 12 days",0.20 µg/mL
same,Stability of Plant-Derived Cannabinoid Compounds in AB Red,"stored at 21-25° C., 15 days",0.20 µg/mL
same,Stability of Plant-Derived Cannabinoid Compounds in AB Red,"stored at 21-25° C., 16 days",0.19 µg/mL
same,Stability of Plant-Derived Cannabinoid Compounds in AB Red,"stored at 21-25° C., 17 days",0.20 µg/mL
same,Stability of Plant-Derived Cannabinoid Compounds in AB Red,"stored at 21-25° C., 18 days",0.20 µg/mL
same,Stability of Plant-Derived Cannabinoid Compounds in AB Red,"stored at 21-25° C., 19 days",0.19 µg/mL
same,Stability of Plant-Derived Cannabinoid Compounds in AB Red,"stored at 21-25° C., 22 days",0.20 µg/mL
same,Stability of Plant-Derived Cannabinoid Compounds in AB Red,"stored at 21-25° C., 23 days",0.19 µg/mL
same,Stability of Plant-Derived Cannabinoid Compounds in AB Red,"stored at 21-25° C., 24 days",0.19 µg/mL
same,Stability of Plant-Derived Cannabinoid Compounds in AB Red,"stored at 21-25° C., 25 days",0.19 µg/mL
same,Stability of Plant-Derived Cannabinoid Compounds in AB Red,"stored at 21-25° C., 26 days",0.19 µg/mL
same,Stability of Plant-Derived Cannabinoid Compounds in AB Red,"stored at 21-25° C., 29 days",0.19 µg/mL
same,Stability of Plant-Derived Cannabinoid Compounds in AB Red,"stored at 21-25° C., 30 days",0.20 µg/mL
same,Stability of Plant-Derived Cannabinoid Compounds in AB Red,"stored at 21-25° C., 60 days",0.20 µg/mL
same,Stability of Plant-Derived Cannabinoid Compounds in AB Red,"stored at 21-25° C., 90 days",0.19 µg/mL
same,Stability of Plant-Derived Cannabinoid Compounds in AB Red,"stored at 21-25° C., 120 days",0.19 µg/mL
same,Stability of Plant-Derived Cannabinoid Compounds in AB Red,"stored at 21-25° C., 150 days",0.20 µg/mL
same,Stability of Plant-Derived Cannabinoid Compounds in AB Red,"stored at 21-25° C., 180 days",0.20 µg/mL
same,Stability of Plant-Derived Cannabinoid Compounds in AB Red,"stored at 21-25° C., 210 days",0.19 µg/mL
same,Stability of Plant-Derived Cannabinoid Compounds in AB Red,"stored at 21-25° C., 240 days",0.20 µg/mL
same,Stability of Plant-Derived Cannabinoid Compounds in AB Red,"stored at 21-25° C., 270 days",0.20 µg/mL
same,Stability of Plant-Derived Cannabinoid Compounds in AB Red,"stored at 21-25° C., 300 days",0.19 µg/mL
same,Stability of Plant-Derived Cannabinoid Compounds in AB Red,"stored at 21-25° C., 330 days",0.19 µg/mL
same,Stability of Plant-Derived Cannabinoid Compounds in AB Red,"stored at 21-25° C., 360 days",0.19 µg/mL
same,Stability of Plant-Derived Cannabinoid Compounds in AB Red,"stored at 21-25° C., 390 days",0.19 µg/mL
same,Stability of Plant-Derived Cannabinoid Compounds in AB Red,"stored at 21-25° C., 420 days",0.19 µg/mL
same,Stability of Plant-Derived Cannabinoid Compounds in AB Red,"stored at 21-25° C., 450 days",0.19 µg/mL
same,Stability of Plant-Derived Cannabinoid Compounds in AB Red,"stored at 21-25° C., 480 days",0.19 µg/mL
same,Stability of Plant-Derived Cannabinoid Compounds in AB Red,"stored at 21-25° C., 510 days",0.19 µg/mL
same,Stability of Plant-Derived Cannabinoid Compounds in AB Red,"stored at 21-25° C., 540 days",0.19 µg/mL
same,Stability of Plant-Derived Cannabinoid Compounds in AB Red,"stored at 21-25° C., 570 days",0.18 µg/mL
